The test relates to U87MG cells. Description: Cellular assay, inhibition of 2-HG production in U87MG cells. It counts as cell-based. As to conditions: Homo sapiens, U-87 MG, 48 h. The protocol:
Cells (HT1080 or U87MG) are grown in T125 flasks in DMEM containing 10% FBS, 1× penicillin/streptomycin and 500 ug/mL G418 (present in U87MG cells only). They are harvested by trypsin and seeded into 96 well white bottom plates at a density of 5000 cell/well in 100 ul/well in DMEM with 10% FBS. […] Cells are incubated overnight at 37° C. in 5% CO2. The next day test compounds are made up at 2× the final concentration and 100 ul are added to each cell well. The final concentration of DMSO is 0.2% and the DMSO control wells are plated in row G. The plates are then placed in the incubator for 48 hours. […] The cell plate is placed back in the incubator for another 24 hours. At 72 hours post compound addition, 10 mL/plate of Promega Cell Titer Glo reagent is thawed and mixed. The cell plate is removed from the incubator and allowed to equilibrate to room temperature. Then 100 ul of Promega Cell Titer Glo reagent is added to each well of media. The cell plate is then placed on an orbital shaker for 10 minutes and then allowed to sit at room temperature for 20 minutes. The plate is then read for luminescence with an integration time of 500 ms.

Compound `N#Cc1ccnc(N2C(=O)CC[C@H]2C(=O)N(c2cccc(F)c2)[C@H](C(=O)NC2CC(F)(F)C2)c2ccccc2Cl)c1F` [Compound 82, (S)—N—((S)-1-(2-Chlorophenyl)-2-((3,3-difluorocyclobutyl)amino)-2-oxoethyl)-1-(4-cyano-3-fluoropyridin-2-yl)-N-(3-fluorophenyl)-5-oxopyrrolidine-2-carboxamide] showed an IC50 below 0.1 µM.

`N#Cc1ccnc(N2C(=O)CC[C@H]2C(=O)N(c2cccc(S(N)(=O)=O)c2)[C@H](C(=O)NC2CC(F)(F)C2)c2ccccc2Cl)c1` [Compound 84, (S)—N—((S)-1-(2-Chlorophenyl)-2-(3,3-difluorocyclobutylamino)-2-oxoethyl)-1-(4-cyanopyridin-2-yl)-5-oxo-N-(3-sulfamoylphenyl)pyrrolidine-2-carboxamide]: the IC50 lay within 0.1 to 0.5 µM.

For `N#Cc1ccnc(N2C(=O)OCC[C@H]2C(=O)N(c2cncc(F)c2)[C@H](C(=O)NC2CCC(F)(F)CC2)c2ccccc2Cl)c1` [Compound 137, (S)—N—((S)-1-(2-Chlorophenyl)-2-((4,4-difluorocyclohexyl)amino)-2-oxoethyl)-3-(4-cyano-pyridin-2-yl)-N-(5-fluoropyridin-3-yl)-2-oxo-1,3-oxazinane-4-carboxamide], the IC50 is below 0.1 µM.

Regarding `N#Cc1ccnc(N2C(=O)CC[C@H]2C(=O)N(c2cc(F)cc(F)c2)[C@H](C(=O)NC2CC(F)(F)C2)c2ccccc2)c1` [Compound 210, (S)-1-(4-Cyanopyridin-2-yl)-N—((S)-2-(3,3-difluorocyclobutylamino)-2-oxo-1-phenylethyl)-N-(3,5-difluorophenyl)-5-oxopyrrolidine-2-carboxamide], the IC50 is below 0.1 µM.

In the case of `N#Cc1ccnc(N2C(=O)CNC[C@H]2C(=O)N(c2cc(F)cc(F)c2)[C@H](C(=O)NC2CC(F)(F)C2)c2ccccc2Cl)c1` [Compound 100, (S)—N—((S)-1-(2-Chlorophenyl)-2-((3,3-difluorocyclobutyl)amino)-2-oxoethyl)-1-(4-cyanopyridin-2-yl)-N-(3,5-difluorophenyl)-6-oxopiperazine-2-carboxamide], the half-inhibitory concentration (IC50) was below 0.1 µM.

The compound `N#Cc1ccnc(N2C(=O)CC[C@H]2C(=O)N(c2cncc(F)c2)[C@H](C(=O)NC2CC(F)(F)C2)c2ccccc2)c1` [Compound 147, (S)-1-(4-Cyanopyridin-2-yl)-N—((S)-2-((3,3-difluorocyclobutyl)amino)-2-oxo-1-phenylethyl)-N-(5-fluoropyridin-3-yl)-5-oxopyrrolidine-2-carboxamide] gave a half-inhibitory concentration (IC50) below 0.1 µM.

As to `N#Cc1ccnc(N2C(=O)CC[C@H]2C(=O)N(c2cccc(CCO)c2)[C@H](C(=O)NC2CC(F)(F)C2)c2ccccc2Cl)c1` [Compound 160, (S)—N—((S)-1-(2-Chlorophenyl)-2-((3,3-difluorocyclobutyl)amino)-2-oxoethyl)-1-(4-cyanopyridin-2-yl)-N-(3-(2-hydroxyethyl)phenyl)-5-oxopyrrolidine-2-carboxamide], the IC50 is below 0.1 µM.

With `N#Cc1ccnc(N2C(=O)[C@H](O)C[C@H]2C(=O)N(c2cccc(F)c2)[C@@H](C(=O)NC2CCC(F)(F)CC2)c2ccccc2Cl)n1` [Compound 122, (2S,4R)—N—((R)-1-(2-Chlorophenyl)-2-((4,4-difluorocyclohexyl)amino)-2-oxoethyl)-1-(4-cyanopyrimidin-2-yl)-N-(3-fluorophenyl)-4-hydroxy-5-oxopyrrolidine-2-carboxamide], the IC50 is 0.1 to 0.5 µM.

Take `CC(C)(C)OC(=O)N1CC(=O)N(c2nccc(C#N)n2)[C@H](C(=O)N(c2cc(F)cc(F)c2)[C@H](C(=O)NC2CC(F)(F)C2)c2ccccc2Cl)C1` [Compound 98, (3S)-tert-butyl 3-((1-(2-chlorophenyl)-2-((3,3-difluorocyclobutyl)amino)-2-oxoethyl)(3,5-difluorophenyl)carbamoyl)-4-(4-cyanopyrimidin-2-yl)-5-oxopiperazine-1-carboxylate]: the half-maximal inhibitory concentration (IC50) is below 0.1 µM.

Regarding `CC(C)(C)OC(=O)N1CC(=O)N(c2nccc(C#N)n2)[C@H](C(=O)N(c2cc(F)cc(F)c2)[C@H](C(=O)NC2CCC(F)(F)CC2)c2ccccc2Cl)C1` [Compound 93, (S)-tert-Butyl 3-(((S)-1-(2-chlorophenyl)-2-((4,4-difluorocyclohexyl)amino)-2-oxoethyl)(3,5-difluorophenyl)carbamoyl)-4-(4-cyanopyrimidin-2-yl)-5-oxopiperazine-1-carboxylate], the half-maximal inhibitory concentration (IC50) is below 0.1 µM.

For `N#Cc1ccnc(N2C(=O)CC[C@H]2C(=O)N(c2cccc(C3CC3)c2)[C@H](C(=O)NC2CC(F)(F)C2)c2ccccc2Cl)n1` [Compound 182, (S)—N—((S)-1-(2-Chlorophenyl)-2-((3,3-difluorocyclobutyl)amino)-2-oxoethyl)-1-(4-cyanopyrimidin-2-yl)-N-(3-cyclopropylphenyl)-5-oxopyrrolidine-2-carboxamide], the IC50 is below 0.1 µM.

`CS(=O)(=O)c1cccc(N(C(=O)[C@@H]2CCC(=O)N2c2cc(C#N)ccn2)C(C(=O)NC2CCC(F)(F)CC2)c2ccccc2Cl)c1` (stereo partly drawn) [Compound 95, (2S)—N-(1-(2-Chlorophenyl)-2-((4,4-difluorocyclohexyl)amino)-2-oxoethyl)-1-(4-cyanopyridin-2-yl)-N-(3-(methylsulfonyl)phenyl)-5-oxopyrrolidine-2-carboxamide] gave a half-inhibitory concentration (IC50) below 0.1 µM.

For `N#Cc1ccnc(N2C(=O)CC[C@H]2C(=O)N(c2ccccc2F)[C@H](C(=O)NC2CC(F)(F)C2)c2ccccc2Cl)c1` [Compound 187, (S)—N—((S)-1-(2-Chlorophenyl)-2-((3,3-difluorocyclobutyl)amino)-2-oxoethyl)-1-(4-cyanopyridin-2-yl)-N-(2-fluorophenyl)-5-oxopyrrolidine-2-carboxamide], the half-inhibitory concentration (IC50) is below 0.1 µM.

`N#Cc1ccnc(N2C(=O)CN(C3CC3)C[C@H]2C(=O)N(c2cc(F)cc(F)c2)[C@H](C(=O)NC2CC(F)(F)C2)c2ccccc2Cl)c1` [Compound 106, (S)—N—((S)-1-(2-chlorophenyl)-2-((3,3-difluorocyclobutyl)amino)-2-oxoethyl)-1-(4-cyanopyridin-2-yl)-4-cyclopropyl-N-(3,5-difluorophenyl)-6-oxopiperazine-2-carboxamide] yielded an IC50 below 0.1 µM.

The compound `N#Cc1ccnc(N2C(=O)CC[C@H]2C(=O)N(c2cc(F)ccc2F)[C@H](C(=O)NC2CC(F)(F)C2)c2ccccc2Cl)c1` [Compound 197, (S)—N—((S)-1-(2-Chlorophenyl)-2-((3,3-difluorocyclobutyl)amino)-2-oxoethyl)-1-(4-cyanopyridin-2-yl)-N-(2,5-difluorophenyl)-5-oxopyrrolidine-2-carboxamide] returned a concentration for half-maximal inhibition (IC50) below 0.1 µM.

`CS(=O)(=O)c1cc(F)cc(N(C(=O)[C@@H]2CCC(=O)N2c2cc(C#N)ccn2)C(C(=O)NC2CCC(F)(F)CC2)c2ccccc2Cl)c1` (stereo partly drawn) [Compound 105, (2S)—N-(1-(2-Chlorophenyl)-2-((4,4-difluorocyclohexyl)amino)-2-oxoethyl)-1-(4-cyanopyridin-2-yl)-N-(3-fluoro-5-(methylsulfonyl)phenyl)-5-oxopyrrolidine-2-carboxamide] registered an IC50 below 0.1 µM.

Take `N#Cc1ccnc(N2C(=O)[C@H](O)C[C@H]2C(=O)N(c2cc(F)cc(F)c2)[C@H](C(=O)NC2CC(F)(F)C2)c2ccccc2Cl)n1` [Compound 117, (2S,4R)—N—((S)-1-(2-Chlorophenyl)-2-((3,3-difluorocyclobutyl)amino)-2-oxoethyl)-1-(4-cyanopyrimidin-2-yl)-N-(3,5-difluorophenyl)-4-hydroxy-5-oxopyrrolidine-2-carboxamide]: the IC50 was below 0.1 µM.

Compound `N#Cc1ccnc(N2C(=O)CC[C@H]2C(=O)N(c2cccc(C3(O)CC3)c2)[C@H](C(=O)NC2CC(F)(F)C2)c2ccccc2Cl)c1` [Compound 140, (S)—N—((S)-1-(2-Chlorophenyl)-2-(3,3-difluorocyclobutylamino)-2-oxoethyl)-1-(4-cyanopyridin-2-yl)-N-(3-(1-hydroxycyclopropyl)phenyl)-5-oxopyrrolidine-2-carboxamide] displayed an IC50 below 0.1 µM.

The compound `N#Cc1ccnc(N2C(=O)OCC[C@H]2C(=O)N(c2cc(F)cc(F)c2)[C@H](C(=O)NC2CC(F)(F)C2)c2ccccc2Cl)n1` [Compound 154, (S)—N—((S)-1-(2-Chlorophenyl)-2-((3,3-difluorocyclobutyl)amino)-2-oxoethyl)-3-(4-cyanopyrimidin-2-yl)-N-(3,5-difluorophenyl)-2-oxo-1,3-oxazinane-4-carboxamide] registered an IC50 below 0.1 µM.

`CC(C)(O)c1cc(F)cc(N(C(=O)[C@@H]2COC(=O)N2c2cc(C#N)ccn2)C(C(=O)NC2CC(F)(F)C2)c2ccccc2Cl)c1` (stereo partly drawn) [Compound 145, (4S)—N-(1-(2-Chlorophenyl)-2-(3,3-difluorocyclobutylamino)-2-oxoethyl)-3-(4-cyanopyridin-2-yl)-N-(3-fluoro-5-(2-hydroxypropan-2-yl)phenyl)-2-oxooxazolidine-4-carboxamide] showed a half-maximal inhibitory concentration (IC50) below 0.1 µM.

The compound `N#Cc1ccnc(N2C(=O)CC[C@H]2C(=O)N(c2cccc(F)c2)[C@H](C(=O)NC2CC(F)(F)C2)c2ccccc2F)c1` [Compound 149, (S)-1-(4-Cyanopyridin-2-yl)-N—((S)-2-((3,3-difluorocyclobutyl)amino)-1-(2-fluorophenyl)-2-oxoethyl)-N-(3-fluorophenyl)-5-oxopyrrolidine-2-carboxamide] had a 50% inhibitory concentration (IC50) below 0.1 µM.

Broadly, the IC50 is the concentration that inhibits the measured activity by half. High values mean a need for much substance, low ones inhibition by little substance.

Values taken from patent US10640534B2 (Agios Pharmaceuticals, Inc., priority 2012, dated 2020).
